Results on 103 compounds are retold here after ChEMBL document CHEMBL3507680, “University of Dundee, Gates Library screen for HepG2 cell viability”.

The data set is described as follows: Human HepG2 cell viability assay in 384 well format. It is filed as toxicity, cell-based. On the set-up: dose 125 nL, time 70.5 hour; cytotoxicity at 70.5 h: concentration not given beside the values. Particulars: HepG2 cells, read-out: Inhibition.
As for `CSC(C)(C)CNC(=O)NC1CCN(CC=C(C)C)CC1`, the cytotoxicity at 70.5 h is 31.2%.
The figure for `CSC(C)(C)CNC(=O)NC1CCN(CC2CC2)C1` (stereo not drawn) is 15.5%; for `COc1ccc(Br)c(C(=O)NCC2CC2)c1` it is 18.2%; for `O=C1c2ccccc2C(=O)N1CC(O)Cn1nc(-c2cccs2)oc1=O` (stereo not drawn) it is 5.68%.
The figure for `O=c1oc(-c2cccs2)nn1CC(O)c1ccccc1F` (stereo not drawn) is -4.66%; for `CCCS(=O)(=O)N1CCC(NC(=O)c2ccc(C)s2)CC1` it is -8.95%; for `CC(NC(=O)NCCCn1cccn1)c1ccccn1` (stereo not drawn) it is -5.57%.
With `CCc1ccc(C(=O)Nc2cccc(CN3CCCC3C(N)=O)c2)cc1` (stereo not drawn), the cytotoxicity at 70.5 h came to 0.802%.
The figure for `CC(NC(=O)NCCCn1cccn1)c1ccncc1` (stereo not drawn) is -10.8%; for `O=C(CCN1CCCC1c1cccc2c1OCCO2)N1CCCCC1` (stereo not drawn) it is -6.86%.
The figure for `NC(=O)NC(=O)CCN1CCCC1c1cccc2c1OCCO2` (stereo not drawn) is -11.6%.
The figure for `CCc1nc(CCNC(=O)Nc2cc(C(N)=O)ccc2OC)cs1` is -12.4%; for `CCNC(=O)CCN1CCCC1c1cccc2c1OCCO2` (stereo not drawn) it is -7.15%; for `Cc1cccc(NC(=O)[C@@H]2CCCN2Cc2nc3ccccc3o2)n1` it is 4.7%.
Regarding `COc1ccc(-n2cnnc2SCC(=O)NC(C)C)cn1`, the cytotoxicity at 70.5 h was -3.19%.
The figure for `Cc1cc(S(=O)(=O)N2CCCc3cc(Cl)ccc32)sc1C(=O)O` is 2.62%.
Under `COCC(=O)NC1CCN(c2cccc(OC(F)(F)F)c2)C1=O` (stereo not drawn) stands -7.95%.
Under `CCC(=O)NC1CCN(c2cccc(OC(F)(F)F)c2)C1=O` (stereo not drawn) stands -2.63%; under `Cc1cccc(NC(=O)[C@@H]2CCCN2Cc2ccc(C#N)cc2F)n1`, -0.253%; under `CC(=O)N1CCC(C(=O)NC(C)c2cccc(OC(F)F)c2)CC1` (stereo not drawn), 1.57%.
For the compound `Cc1cc(C(=O)N2CCN(CC(O)Cn3cccn3)CC2)c(C)o1` (stereo not drawn), the cytotoxicity at 70.5 h was found to be 6.38%.
In the case of `Cc1ccc(NC(=O)C2CCc3ccccc3N2)cc1` (stereo not drawn), the cytotoxicity at 70.5 h worked out at 15.2%.
For `CC(=O)NCCC(=O)NCC1(c2c(F)cccc2F)CCCC1`, the cytotoxicity at 70.5 h was -3.9%.
With `COC(=O)c1ccc(/C=C/c2ncc(C(=O)O)s2)cc1`, the cytotoxicity at 70.5 h came out at 3.38%.
The figure for `COc1cc(/C=C/c2ncc(C(=O)O)s2)cc(OC)c1` is 14.7%; for `CCS(=O)(=O)CC(=O)NCC1(c2c(F)cccc2F)CCCC1` it is 18%; for `CC(C)c1nc2n(n1)CC(NCC(=O)NCCC1=CCCCC1)CC2` (stereo not drawn) it is -0.816%.
Under `Cc1cc(=O)n(C)cc1NC(=O)NCc1cccc(F)c1` stands -2.73%.
Regarding `CCC(CNC(=O)c1nc(=O)[nH][nH]1)Oc1cccc(F)c1` (stereo not drawn), the cytotoxicity at 70.5 h came out at 0.426%.
The figure for `CCn1c(CNC(=O)Nc2nc(C)c(C)o2)nc2ccccc21` is 14.3%; for `CCC(CNC(=O)c1nc(=O)[nH][nH]1)Oc1cccc(C(F)(F)F)c1` (stereo not drawn) it is -3.8%; for `Cc1cc(=O)n(C)cc1NC(=O)Cc1cccc(Cl)c1` it is -0.253%.
On to `Cc1cc(=O)n(C)cc1NC(=O)Cc1cc(F)ccc1F`, for which the cytotoxicity at 70.5 h was 2.11%.
`Cn1cc(CNc2ccc(F)c(N3CCCS3(=O)=O)c2)cn1`: the cytotoxicity at 70.5 h was -1.61%.
For `O=C(CCCC1CCCC1)NS(=O)(=O)CC1CC1`, the cytotoxicity at 70.5 h was -2.25%.
As for `Cc1nnc(C(C)N(C)Cc2c(C)nn(-c3ccccc3)c2C)o1` (stereo not drawn), the cytotoxicity at 70.5 h was -1.32%.
Take `CC(NCC1CCN(CCO)CC1)c1ccc(OC(F)(F)F)cc1` (stereo not drawn): the cytotoxicity at 70.5 h is -2.01%.
For `O=C(c1cccc(Cl)c1Cl)N1CCN(CC(O)Cn2cccn2)CC1` (stereo not drawn), the cytotoxicity at 70.5 h is -2.95%.
As to `CN(Cc1ccccc1NCc1ncc[nH]1)C(=O)c1cccs1`, the cytotoxicity at 70.5 h stood at 14%.
The figure for `CN(CCN1CCOCC1)C(=O)C1(c2ccc(F)cc2F)CCC1` is -2.7%; for `CC(NCC1CCN(CCO)CC1)c1cccnc1` (stereo not drawn) it is 28.1%; for `Cc1cc(-n2cncn2)ccc1C(=O)N(CC(F)(F)F)C(C)C` it is -7.81%.
For the compound `Cc1ccsc1CN(C)Cn1nccc1-c1cccnc1`, the cytotoxicity at 70.5 h was -2.36%.
As for `CC1(C)CCC(C(=O)N2CCCO2)c2ccccc21` (stereo not drawn), the cytotoxicity at 70.5 h is 9.21%.
For `Cc1cc(-n2cncn2)ccc1C(=O)N(C)CC(F)(F)C(F)(F)F`, the cytotoxicity at 70.5 h is -5.19%.
As for `CC1(C)CCC(C(=O)O)c2ccccc21` (stereo not drawn), the cytotoxicity at 70.5 h was -8.46%.
In the case of `CN(Cc1ccc(Br)s1)Cn1nc(-c2ccccc2)oc1=O`, the cytotoxicity at 70.5 h was -9.53%.
Under `Cc1ncc(CN(C)Cn2nc(-c3ccccc3)oc2=O)s1` stands -13.1%; under `CN(C(=O)CNC(=O)CC(C)(C)C)C1CCN(c2ccccn2)CC1`, -6.78%.
Under `Cc1ccsc1CN(C)c1nc2c(cnn2C(C)(C)C)c(=O)[nH]1` stands -4.96%.
The figure for `Cc1nc(-c2ccccc2)ccc1C(=O)N1CCn2c(C)nnc2C1` is -11.8%; for `CN(C(=O)CNc1ccc(C#N)cc1)C1CCN(c2ccccn2)CC1` it is -10%.
On to `Cn1nnc2cc(C(=O)NS(=O)(=O)c3cccc(C#N)c3)ccc21`, for which the cytotoxicity at 70.5 h was -5.98%.
Under `Cc1cc(C)c2c(c1)C(NC(=O)CSCC(N)=O)CCO2` (stereo not drawn) stands -9.85%.
Under `OC(CN(Cc1ccccc1)Cc1cscn1)c1ccco1` (stereo not drawn) stands -9.5%; under `CCc1noc(CC)c1CNC(=O)Nc1cccc([S+](C)[O-])c1` (stereo not drawn), -1.9%.
The figure for `CCc1noc(CC)c1CNC(=O)Nc1cccc(C(=O)N(C)C)c1` is -1.22%; for `Cc1noc(C)c1CN(C)Cn1nccc1-c1cccnc1` it is 10.8%; for `O=C(Nc1ccc(F)c(-n2cccc2)c1)NC1(CCO)CCOCC1` it is -10.8%.
With `CCn1c(CN(C)C(=O)c2ccc(OC)nc2)nc2ccccc21`, the cytotoxicity at 70.5 h is -11.7%.
`CN(C)CC1CCN(Cc2nccn2CC(F)(F)F)CC1`: the cytotoxicity at 70.5 h is -0.976%.
Under `CCC(C)NC(=O)CS(=O)(=O)Cc1nc(-c2cccs2)no1` (stereo not drawn) stands -8.46%.
On to `Cc1nn(-c2ccccc2)nc1C(=O)NCC(c1ccco1)N(C)C` (stereo not drawn), for which the cytotoxicity at 70.5 h is -15.6%.
Take `O=C(CCS(=O)(=O)C1CCCC1)NCCc1cccnc1`: the cytotoxicity at 70.5 h is -6.71%.
The figure for `O=C(CC1CCCO1)Nc1ccn(Cc2cccc3cccnc23)n1` (stereo not drawn) is -6.79%.
Under `CCc1nnc2n1CCN(C(=O)c1cnn(C)c1C1CC1)C2` stands 8.38%; under `O=C(COCC1CC1)Nc1ccn(Cc2cccc3cccnc23)n1`, -1.28%.
As for `CC(C)c1nnc2n1CCN(C(=O)c1cnc(C3CC3)s1)C2`, the cytotoxicity at 70.5 h is -7.9%.
Consider `CCC(C)(C)NC(=O)Nc1nnc(-c2ccccn2)s1`, for which the cytotoxicity at 70.5 h was -10.1%.
The figure for `Cc1cnn(C2CCN(Cc3ccccc3)C2)c1N` (stereo not drawn) is 16%; for `Nc1ccnn1C1CCN(Cc2ccccc2)C1` (stereo not drawn) it is 2.28%.
On to `CNC(=O)N(Cc1c(F)cccc1F)C1CCCC1`, for which the cytotoxicity at 70.5 h is -3.72%.
Under `Cc1nc(C2CCCCC2)sc1C(=O)O` stands 0.584%; under `Cc1occc1CNC(=O)Nc1ccc2nc(N3CCOCC3)oc2c1`, -9.42%.
With `CN(CCCc1n[nH]c(N)c1C#N)C(=O)NC1CC1`, the cytotoxicity at 70.5 h is -2.78%.
`O=C1OCCC1N1CCN(c2ccc(O)cc2)CC1` (stereo not drawn): the cytotoxicity at 70.5 h was 10.3%.
Under `Cc1ccc(C(CNC(=O)Cc2nc3ncccn3n2)N(C)C)cc1` (stereo not drawn) stands -10.7%.
With `NC(=O)Nc1cc(Br)cnc1OCC(F)(F)F`, the cytotoxicity at 70.5 h is -7.02%.
On to `CC(=O)Nc1cc(Br)cnc1OCC(F)(F)F`, for which the cytotoxicity at 70.5 h was determined as 20.4%.
Under `NC(=O)c1cccc(CCNCc2cccs2)c1` stands -3.84%; under `COCC(=O)Nc1cc(Br)cnc1OCC(F)(F)F`, -11.8%.
Under `CN1CCN(C2CCN(c3cnc4ccccc4n3)CC2)C1=O` stands -12.4%; under `O=C1C(N2CCN(c3ccc(O)cc3)CC2)CCN1C1CCOCC1` (stereo not drawn), 24.5%; under `O=C(c1ncncc1Cl)N1CCN(c2ccc(Cl)cc2)CC1`, -8.8%.
For the compound `O=S(=O)(CCC1CCCO1)NCc1ncc(-c2ccccc2)o1` (stereo not drawn), the cytotoxicity at 70.5 h was 5%.
Take `Cn1cc(C(=O)NC2CCCC2)c(-c2cccnc2)n1`: the cytotoxicity at 70.5 h was -10.4%.
On to `NC(=O)c1cccc(CCNCc2cnc(-c3cccs3)s2)c1`, for which the cytotoxicity at 70.5 h is -12.1%.
Under `Cc1cc(C)n(-c2ccc(C(C)NS(N)(=O)=O)cc2)n1` (stereo not drawn) stands -11.9%.
The figure for `Cn1c(C(N)=O)ccc1-c1ccccc1` is 6.66%.
On to `Cc1cc(C)n(-c2ccc(C(C)NS(=O)(=O)CCCS(C)(=O)=O)cc2)n1` (stereo not drawn), for which the cytotoxicity at 70.5 h was determined as 19.6%.
The figure for `O=C1C(N2CCN(c3ccccc3Cl)CC2)CCN1C1CCOCC1` (stereo not drawn) is -5.64%.
Turning to `CC/C=C(/C)C(=O)NCc1ccc(OC)nc1`, the cytotoxicity at 70.5 h is -13.3%.
As to `CC(CCNC(=O)N(C)CC1CCOCC1)N1CCCCC1` (stereo not drawn), the cytotoxicity at 70.5 h is -7.97%.
As to `O=C(Nc1ccc(-n2cccn2)c(F)c1)C1CCN(C(=O)C2CC2)CC1`, the cytotoxicity at 70.5 h is -0.357%.
Under `CC(=O)N(C)CC(=O)Nc1ccc(C)cc1OCc1ccccc1` stands -1.76%; under `Cc1ccc(-c2n[nH]cc2CNCC2CCS(=O)(=O)C2)o1` (stereo not drawn), 11.2%; under `CC(=O)NCCCC(=O)NC1(c2ccc(Cl)c(Cl)c2)CC1`, 2.93%.
As to `CS(=O)(=O)NCC(=O)NC1(c2ccc(Cl)c(Cl)c2)CC1`, the cytotoxicity at 70.5 h was -2.05%.
Regarding `Cc1cc(C2CCCN2c2ncc(C(N)=O)cc2Cl)no1` (stereo not drawn), the cytotoxicity at 70.5 h was -0.208%.
Under `CCS(=O)(=O)CC(=O)NC1(c2ccc(Cl)c(Cl)c2)CC1` stands -2.35%; under `Cn1cc(C2CCCN2c2ncnc3[nH]ccc23)cn1` (stereo not drawn), 5.41%; under `Cc1nn(C)c(C)c1C1CCCN1c1ncnc2[nH]ccc12` (stereo not drawn), 0.0825%.
The figure for `COc1ccc(C(=O)NCCCC2(C3OCCO3)CCOCC2)cc1` is -1.34%.
